Read-outs that look alike come from different tables or passages of the source.
What was measured:
[1] = test system: P. falciparum; assay: Antimalarial screening against asexual blood stage P. falciparum; assay type: cell-based, Plasmodium falciparum; details: for fold decreased antimalarial potency compared to 3 / fold potency decrease compared with 30 / fold potency increase compared with 3: P. falciparum; for fold decreased antimalarial potency compared to 3 / fold potency increase compared with 3: relative to 3; for P. fal pIC50 / IC50: potency against asexual blood stage of P. falciparum, average values n ≥ 2, s.d. < 0.3; for fold potency decrease compared with 30: relative to 30; for IC50: Plasmodium falciparum, read-out: P. fal pIC50 (converted)
Method: Previously, Howard et al. reported (sub)micromolar activity against P. falciparum for a series of BIPPO analogs with benzyl substituents. To further understand the structure–activity relationship (SAR) of this interesting scaffold, close analogs of 3 with substituents at R^1–R^4 positions were tested against P. falciparum and human MRC-5 cells as the control for non-specific toxicity (Table 1).
The assay for antimalarial activity was carried out as described in detail in Pereira et al..

[2] = test system: human MRC-5 cells; assay: Non-specific toxicity control on human MRC-5 cells; assay type: cell-based
[3] = Non-specific toxicity control on human MRC-5 cells; assay type: cell-based
[4] = Metabolic stability in mouse liver microsomes (S9 fraction); assay type: in vitro ADME; details: for parent compound left: one hour of incubation; for metabolic stability relative to diclofenac: mouse Phase I assay
Method: (§1) Thus, compounds 23, 28–30, 47a and 47b with high potencies (pIC50 > 6) were evaluated for their in vitro metabolic stability in human and mouse liver microsomes (S9 fraction) with diclofenac as a reference compound. As summarized in Figure 2, substituents in the R^4 position affect metabolic stability. […] Their stability against mouse liver microsomes is lower, especially for their Phase I metabolism; only 38% and 26% of the parent compounds are left for 23 and 29 after one hour of incubation. […] For the adamantanyl analogs 30, 47a and 47b, metabolic stability differs drastically, with Phase I identified as the main metabolic pathway. Analog 47b was metabolized for >95% within 30 min with mouse liver microsomes, while 90% of 47a (tert-butyl analog) was left after one hour of incubation.
(§2) The assay for metabolic stability in human and mouse liver microsomal fractions (S9) was performed as described.

[5] = Metabolic stability in human liver microsomes (S9 fraction); assay type: in vitro ADME; details: one hour incubation, Phase I and Phase II metabolism
Method: as §1, §2

[6] = human MRC-5 cells, average values n ≥ 2, s.d. < 0.3, read-out: MRC-5 pIC50 (converted)
[7] = mouse liver microsomes, phase not given
[8] = mouse liver microsomes, Phase I metabolism

IC50 [1]	Compound	IC50 [3, 6]	also measured
	5-(Benzyloxy)-3-isopropyl-1,6-dihydro-7H-pyrazolo[4,3-d]pyrimidin-7-one [compound 5]		fold decreased antimalarial potency compared to 3 [1]: 5- to 25 fold; P. fal pIC50 [1]: 5.2; MRC-5 pIC50 ([2]; human MRC-5 cells, average values n ≥ 2, s.d. < 0.3): < 4.2
	CC(C)(C)c1n[nH]c2c(=O)[nH]c(C34CC5CC(CC(C5)C3)C4)nc12 [47a, 5-(Adamantan-1-yl)-3-(tert-butyl)-1,6-dihydro-7H-pyrazolo[4,3-d]pyrimidin-7-one]	> 63.1 µM	fold potency decrease compared with 30 [1]: 4 fold; metabolic stability in mouse liver microsomes (in words) ([4]; mouse liver microsomes): favorable metabolic stability; parent compound left [4, 7]: 90%
< 1 µM	O=c1[nH]c(C23CC4CC(CC(C4)C2)C3)nc2c(C3CCCC3)n[nH]c12 [47b, 5-(Adamantan-1-yl)-3-cyclopentyl-1,6-dihydro-7H-pyrazolo[4,3-d]pyrimidin-7-one]	> 63.1 µM	fold potency decrease compared with 30 [1]: 2.5 fold; P. fal pIC50 [1]: 6.2; metabolic stability relative to diclofenac [4]: metabolized faster than diclofenac; metabolized ([4]; mouse liver microsomes, within 30 min): > 95%
> 63.1 µM	CC(C)c1n[nH]c2c(=O)[nH]c(-c3ccc(=O)n(C)c3)nc12 [compound 10, 3-Isopropyl-5-(1-methyl-6-oxo-1,6-dihydropyridin-3-yl)-1,6-dihydro-7H-pyrazolo[4,3-d]pyrimidin-7-one]	> 63.1 µM	
> 63.1 µM	CC(C)c1n[nH]c2c(=O)[nH]c(-c3ccn(C)c(=O)c3)nc12 [compound 11, 3-Isopropyl-5-(1-methyl-2-oxo-1,2-dihydropyridin-4-yl)-1,6-dihydro-7H-pyrazolo[4,3-d]pyrimidin-7-one]	> 63.1 µM	
1 µM	CC(C)c1n[nH]c2c(=O)[nH]c(C(C)(C)c3ccccc3)nc12 [compound 14, 3-Isopropyl-5-(2-phenylpropan-2-yl)-1,6-dihydro-7H-pyrazolo[4,3-d]pyrimidin-7-one]	> 63.1 µM	
3.16 µM	CC(C)c1n[nH]c2c(=O)[nH]c(C3(c4ccccc4)CC3)nc12 [compound 16, 3-Isopropyl-5-(1-phenylcyclopropyl)-1,6-dihydro-7H-pyrazolo[4,3-d]pyrimidin-7-one]	> 63.1 µM	fold decreased antimalarial potency compared to 3 [1]: 5- to 25 fold
1.58 µM	CC(C)c1n[nH]c2c(=O)[nH]c(C3(c4ccccc4)CCC3)nc12 [compound 17, 3-Isopropyl-5-(1-phenylcyclobutyl)-1,6-dihydro-7H-pyrazolo[4,3-d]pyrimidin-7-one]	25.1 µM	
> 63.1 µM	CC(C)c1n[nH]c2c(=O)[nH]cnc12 [compound 18, 3-Isopropyl-1,6-dihydro-7H-pyrazolo[4,3-d]pyrimidin-7-one]	> 63.1 µM	
39.8 µM	Cc1nc2c(C(C)C)n[nH]c2c(=O)[nH]1 [compound 19, 3-Isopropyl-5-methyl-1,6-dihydro-7H-pyrazolo[4,3-d]pyrimidin-7-one]	> 63.1 µM	
3.98 µM	CC(C)c1nc2c(C(C)C)n[nH]c2c(=O)[nH]1 [compound 20, 3,5-Diisopropyl-1,6-dihydro-7H-pyrazolo[4,3-d]pyrimidin-7-one]	> 63.1 µM	
1.26 µM	CCCCc1nc2c(C(C)C)n[nH]c2c(=O)[nH]1 [compound 21, 5-Butyl-3-isopropyl-1,6-dihydro-7H-pyrazolo[4,3-d]pyrimidin-7-one]	> 63.1 µM	
0.794 µM	CC(C)c1n[nH]c2c(=O)[nH]c(C3CCCC3)nc12 [compound 22, 5-Cyclopentyl-3-isopropyl-1,6-dihydro-7H-pyrazolo[4,3-d]pyrimidin-7-one]	> 63.1 µM	
	CC(C)c1n[nH]c2c(=O)[nH]c(C3CCCCC3)nc12 [compound 23, 5-Cyclohexyl-3-isopropyl-1,6-dihydro-7H-pyrazolo[4,3-d]pyrimidin-7-one]	> 63.1 µM	fold potency increase compared with 3 [1]: five; metabolic stability relative to diclofenac [4]: metabolized faster than diclofenac; metabolic stability in mouse liver microsomes (in words) ([4]; mouse liver microsomes): favorable metabolic stability; parent compound left [4, 8]: 38%; parent compound remaining [5]: more than 50%
5.01 µM	CC(C)c1n[nH]c2c(=O)[nH]c(C3CCOCC3)nc12 [compound 24, 3-Isopropyl-5-(tetrahydro-2H-pyran-4-yl)-1,6-dihydro-7H-pyrazolo[4,3-d]pyrimidin-7-one]	> 63.1 µM	
5.01 µM	CC(C)c1n[nH]c2c(=O)[nH]c([C@H]3CC[C@H](O)CC3)nc12 [compound 27, trans-5-(4-Hydroxycyclohexyl)-3-isopropyl-1,6-dihydro-7H-pyrazolo [4,3-d]pyrimidin-7-one]	> 63.1 µM	
< 1 µM	CC(C)c1n[nH]c2c(=O)[nH]c(C3CCC(F)(F)CC3)nc12 [compound 28, 5-(4,4-Difluorocyclohexyl)-3-isopropyl-1,6-dihydro-7H-pyrazolo[4,3-d]pyrimidin-7-one]	> 63.1 µM	P. fal pIC50 [1]: 6.0; metabolic stability in mouse liver microsomes (in words) ([4]; mouse liver microsomes): favorable metabolic stability; parent compound left [4, 7]: 68%; parent compound remaining [5]: more than 50%
	CC(C)c1n[nH]c2c(=O)[nH]c(C34CCC(CC3)CC4)nc12 [compound 29, 5-(Bicyclo[2.2.2]octan-1-yl)-3-isopropyl-1,6-dihydro-7H-pyrazolo[4,3-d]pyrimidin-7-one]	> 63.1 µM	metabolic stability relative to diclofenac [4]: metabolized faster than diclofenac; metabolic stability in mouse liver microsomes (in words) ([4]; mouse liver microsomes): favorable metabolic stability; parent compound left [4, 8]: 26%; parent compound remaining [5]: more than 50%
	CC(C)c1n[nH]c2c(=O)[nH]c(C34CC5CC(CC(C5)C3)C4)nc12 [compound 30, 5-(Adamantan-1-yl)-3-isopropyl-1,6-dihydro-7H-pyrazolo[4,3-d]pyrimidin-7-one]	> 63.1 µM	fold potency increase compared with 3 [1]: eight; toxicity for human MCR-5 cells (in words) [2]: without showing noticeable toxicity; metabolic stability relative to diclofenac [4]: metabolized faster than diclofenac

Compound	IC50 [1]	IC50 [3, 6]	also measured
CC(C)c1n[nH]c2c(=O)[nH]c(CCc3ccccc3)nc12 [compound 12, 3-Isopropyl-5-phenethyl-1,6-dihydro-7H-pyrazolo[4,3-d]pyrimidin-7-one]	6.31 µM	> 63.1 µM	fold decreased antimalarial potency compared to 3 [1]: 5- to 25 fold
CC(C)c1n[nH]c2c(=O)[nH]c(C3CCN(C)CC3)nc12 [compound 25, 3-Isopropyl-5-(1-methylpiperidin-4-yl)-1,6-dihydro-7H-pyrazolo[4,3-d]pyrimidin-7-one diformate]	> 63.1 µM	> 63.1 µM	
CC(C)c1n[nH]c2c(=O)[nH]c(C3CCNCC3)nc12 [compound 32, 3-Isopropyl-5-(piperidin-4-yl)-1,6-dihydro-7H-pyrazolo[4,3-d]pyrimidin-7-one]	> 63.1 µM		IC50 ([3]; human): > 63.1 µM
